Laboratory results as given in patent US8835389B2, “Use of calcitonin for the treatment of RA” (priority 2005, dated 2014).
No end group written: not given here.

Legend:
[1] = in vivo
[2] = system: Collagen Induced Arthritis model (CIA-model) in lewis rats; experiment: Collagen Induced Arthritis model (CIA-model), serum CTX-II; format: in vivo; conditions: day 21 after collagen injection, 50 mg/kg 5-CNAC+calcitonin 2 mg/kg twice daily, versus CIA-group
Excerpt: Arthritis induced in rodents by the systemic administration of type II collagen (CII) is an experimental model with many resemblances to RA, and is widely used for studying the disease processes (reviewed in Wooley P H, Chapedelaine J M. Immunogenetics of collagen-induced arthritis. Crit Rev Immunol 1987; 8: 1-22; and Trentham D E. Collagen arthritis as a relevant model for rheumatoid arthritis. Arth Rheum 1982; 25: 9116).
Upon immunization with purified CII in complete Freund's adjuvant, genetically susceptible strains of rodents develop arthritis, which is characterized by cellular and humoral immune responses to CII. […]
Animals are monitored for signs of arthritis one week post immunization on a daily basis and a clinical scoring system is adopted wherein each limb is given a clinical score on the basis of visual signs of oedema and/or erythema as follows: 0=normal, 1=slight swelling and/or erythema at the base of the paw, 2=frank oedema and erythema involving the entire paw, 2·5=pronounced oedema and erythema leading to an incapacitated limb mobility, 3=ankylosis, as previously described in Malfait A M, Butler D M, Presky D H et al., Blockade of IL-12 during the induction of collagen-induced arthritis (CIA) markedly attenuates the severity of the arthritis. […]

[3] = Water solubility of delivery agents

Molecule: O=C(O)CCCCCCCNC(=O)c1cc(Cl)ccc1O [5 CNAC, N-(5-chlorosalicyloyl)-8-aminocaprylic acid]
- absorbed by the gastro-intestinal tract [1]: greater than 90%

Molecule: Calcitonin (CGNLSTCMLGTYTQDFNKFHTFPQTAIGVGAP; ends and bridges not checked; cysteine pairing not given here; UniProt P01258 85-116, looked up)
- reduction of the increase in serum c-terminal telopeptide of type II collagen (serum CTX-II) [2]: 33%

Molecule: O=C(O)CCCCCCCCCNC(=O)c1ccccc1O [SNAD, N-(10-[2-hydroxybenzoyl]amino)decanoic acid]
- water solubility [3]: very water soluble
